Laboratory results: ChEMBL document CHEMBL1139928, “Selective and dual action orally active inhibitors of thrombin and factor Xa” (Bioorg Med Chem Lett, 2007)

Legend:
[1] = Plasma clearance in Sprague-Dawley rat; assay type: ADME, organism-based
[2] = Volume of distribution in Sprague-Dawley rat; assay type: ADME, organism-based; details: in vivo, read-out: Vdss
[3] = Plasma clearance in Beagle dog; assay type: ADME, organism-based, Canis lupus familiaris
[4] = Volume of distribution in Beagle dog; assay type: ADME, organism-based, Canis lupus familiaris; details: in vivo, read-out: Vdss
[5] = Half life in Sprague-Dawley rat; assay type: ADME, organism-based; details: in vivo
[6] = Oral bioavailability in Sprague-Dawley rat; assay type: ADME, organism-based; details: in vivo
[7] = Half life in Beagle dog; assay type: ADME, organism-based, Canis lupus familiaris; details: in vivo
[8] = Oral bioavailability in Beagle dog; assay type: ADME, organism-based, Canis lupus familiaris; details: in vivo

SMILES	clearance [1]	Vd [2]	clearance [3]	Vd [4]	half-life [5]	bioavailability [6]	half-life [7]	bioavailability [8]
C[C@@H](C(=O)N1CCOCC1)N1CC[C@H](NS(=O)(=O)/C=C/c2ccc(Cl)s2)C1=O [GW813893]	8 mL/min/kg	0.3 L/kg	4.6 mL/min/kg	0.4 L/kg				
C[C@@H](C(=O)N1CCOCC1)N1CC[C@H](NS(=O)(=O)CCc2ccc(Cl)s2)C1=O	28 mL/min/kg	0.8 L/kg	13 mL/min/kg	0.5 L/kg	18 min	31%	30 min	38%
C/C(=C\S(=O)(=O)N[C@H]1CCN([C@@H](C)C(=O)N2CCOCC2)C1=O)c1ccc(Cl)s1	21 mL/min/kg	0.4 L/kg	5.7 mL/min/kg	0.3 L/kg	18 min	32%	36 min	48%
